By Ki is commonly meant a measure of affinity in units of concentration, obtained from inhibition or displacement.

Molecules are shown by their SMILES.

For one assay, the target named is T1, mGlu5 receptor (Rattus norvegicus, UniProt P31424).
T1 construct: from tissue; host or cells: forebrain (cortex, striatum and hippocampus) membranes of male Sprague Dawley rats
Nature of the assay: Radioligand binding assay at metabotropic glutamate receptor 5 in rat brain ([3H]MPEP). The following applies: rat forebrain membranes, 4 nM [3H]MPEP; Ki from IC50 by Cheng & Prusoff; read-out: affinity (Ki) for mGlu5 receptor. The procedure: Radioligand Binding Assay at metabotropic glutamate receptor 5 in rat brain.
a) Membrane preparation: male Sprague Dawley rats (200-300 g, Charles River, Italy) were killed by cervical dislocation and the forebrain (cortex, striatum and hippocampus) was homogenized (2×20 sec) in 50 vols of cold 50 mM Tris buffer pH 7.4, using a Politron homogenizer (Kinematica). Homogenates were centrifuged at 48000×g for 15 min, resuspended in 50 vols of the same buffer, incubated at 37° C. for 15 min and centrifuged and resuspended two more times. The final pellets were frozen and stored at −80° C. until use.
b) Binding assay: pellets from rat forebrain were resuspended in 100 vols of 20 mM HEPES, 2 mM MgCl2, 2 mM CaCl2, pH 7.4. The membranes were incubated in a final volume of 1 ml for 60 min at 25° C. with 4 nM [^3H]MPEP in the absence or presence of competing drugs. Non-specific binding was determined in the presence of 10 μM MPEP (Spooren W. et al. Trends Pharmacol Sci. 22, 331-337, 2001). The incubation was stopped by the addition of cold Tris buffer pH 7.4 and rapid filtration through 0.5% polyethyleneimine pretreated Filtermat 1204-401 (Wallac) filters. The filters were then washed with cold buffer and the radioactivity retained on the filters was counted by liquid scintillation spectrometry. […]

The next assay concerns conscious rats. Briefly: Cystometry in conscious rats. In kind it is in vivo, rat. The note with it: administered orally. On the procedure:
Male Sprague-Dawley rats [Crl: CD® (SD) IGS BR] of 300-400 g b.w. supplied by Charles River Italia were used. The animals were housed with free access to food and water and maintained on a forced 12-hour-light/12-hour-dark cycle at 22-24° C. of temperature, except during the experiment. To quantify urodynamic parameters in conscious rats, cystometrographic studies were performed according to the procedure previously reported (Guarneri et al., Pharmacol. Res. 24: 175, 1991).
Briefly, the rats were anaesthetised by intraperitoneal administration of 3 ml/kg of Equithensin solution (pentobarbital 30 mg/kg and chloral hydrate 125 mg/kg) and placed in a supine position. […]
On the day of the experiment, the rats were placed in modified Bollman cages, i.e., restraining cages that were large enough to permit the rats to adopt a normal crouched posture, but narrow enough to prevent turning around. […] The intraluminal-pressure signal during infusion of saline into the bladder (cystometrogram) was continuously recorded on a polygraph (Rectigraph-8K San-ei with BM614/2 amplifier from Biomedica Mangoni) or stored on PC by data acquisition system (PowerLab, Chart 4 software, AD Instruments). From the cystometrogram, bladder volume capacity (BVC) was evaluated. […] Basal BVC value was evaluated as the mean of the values observed in the cystometrograms recorded in an initial period of 30-60 minutes. […]

T1 sequence (P31424 21-1203): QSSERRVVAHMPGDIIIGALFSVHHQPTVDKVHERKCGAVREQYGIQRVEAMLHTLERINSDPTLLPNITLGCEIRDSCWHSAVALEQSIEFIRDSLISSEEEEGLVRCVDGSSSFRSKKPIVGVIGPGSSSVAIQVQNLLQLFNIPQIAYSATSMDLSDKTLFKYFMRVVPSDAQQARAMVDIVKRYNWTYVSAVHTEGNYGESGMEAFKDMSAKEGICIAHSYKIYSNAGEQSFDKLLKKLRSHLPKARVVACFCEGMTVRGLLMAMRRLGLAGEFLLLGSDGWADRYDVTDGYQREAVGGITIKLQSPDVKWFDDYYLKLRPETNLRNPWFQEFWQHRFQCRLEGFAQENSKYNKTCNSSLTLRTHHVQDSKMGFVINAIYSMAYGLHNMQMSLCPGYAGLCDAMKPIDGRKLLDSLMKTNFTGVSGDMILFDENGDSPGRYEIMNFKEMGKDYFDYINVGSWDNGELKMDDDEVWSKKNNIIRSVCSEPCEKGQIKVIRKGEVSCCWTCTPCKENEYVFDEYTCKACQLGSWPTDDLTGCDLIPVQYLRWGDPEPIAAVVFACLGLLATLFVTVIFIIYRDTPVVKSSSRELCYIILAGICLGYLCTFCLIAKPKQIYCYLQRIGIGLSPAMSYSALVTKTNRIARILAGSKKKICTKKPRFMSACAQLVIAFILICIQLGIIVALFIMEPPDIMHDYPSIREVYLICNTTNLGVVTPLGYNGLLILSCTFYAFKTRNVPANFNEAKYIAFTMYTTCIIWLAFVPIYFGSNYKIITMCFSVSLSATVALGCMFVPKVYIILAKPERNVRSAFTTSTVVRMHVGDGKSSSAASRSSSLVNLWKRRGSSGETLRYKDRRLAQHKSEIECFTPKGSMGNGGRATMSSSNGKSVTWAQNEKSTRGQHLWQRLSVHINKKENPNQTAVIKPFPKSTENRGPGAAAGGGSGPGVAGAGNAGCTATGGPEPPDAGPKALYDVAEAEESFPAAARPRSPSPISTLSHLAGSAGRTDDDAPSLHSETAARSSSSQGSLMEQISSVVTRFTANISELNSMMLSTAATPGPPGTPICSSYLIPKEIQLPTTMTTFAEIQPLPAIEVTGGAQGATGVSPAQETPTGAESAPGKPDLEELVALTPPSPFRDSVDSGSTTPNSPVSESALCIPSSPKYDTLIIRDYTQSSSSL

On to `Cc1ccc([N+](=O)[O-])c(N2CCC(=Cc3cc(-c4ccco4)n(C)n3)CC2)n1` [Example 1, 1-(6-methyl-3-nitro-2-pyridyl)-4-{[5-(2-furyl)-1-methyl-1H-pyrazol-3-yl]-methylene}-piperidine], for which the Ki at mGlu5 receptor amounted to 0.37 nM.
In the case of `Cc1ccc([N+](=O)[O-])c(N2CCC(=Cc3noc(-c4cccs4)n3)CC2)n1` [Example 29, 1-(6-methyl-3-nitro-2-pyridyl)-4-{[5-(2-thienyl)-1,2,4-oxadiazol-3-yl]-methylene}-piperidine], in the assay on conscious rats, the “effect on bladder volume capacity (BVC)” value is “effective in increasing the bladder volume capacity”.

Values taken from US20120028931A1, “HETEROCYCLIC M-GLU5 ANTAGONISTS” (RECORDATI IRELAND LIMITED, priority 2009, published 2012).
